Results from US20030055106A1, “Therapeutic uses of peroxometallic compounds” (priority 1999, published 2003).

How the values were obtained:
[1] = test system: Rat aorta rings; assay: Rat aortic ring assay (cell/microvessel migration in fibrin gel); assay type: cell-based
From the text: FIG. 3: Micrographs of the cell migration from aortic rings embedded in fibrin (×12).
FIG. 4: Quantification of the cell migration from aortic rings in the presence of orthovanadate (plain bars); bpV(phen) (light gray bars); and bpV(pic) (dark gray bars). The control appears as an empty bar. Means and standard errors of the means are presented.
Rat aorta rings were embedded in fibrin matrix as previously described (107). Thoracic aortas excised from adult rats were rinsed in Hank's balanced salt solution (HBSS), and cleansed of periadventitial. One-mm long aortic rings were sectioned and rinsed in culture medium. Each of the aortic rings were then embedded in fibrin gel matrix. Migration of microvessels in fibrin gel was quantified by measuring the distance from the external surface of rat aortic rings towards the migrating vessels. Measurements were performed at day 15 by digitizing morphometry with a NIH image analysis system (FIGS. 3 and 4).

[2] = test system: ZR-75-1 human breast cancer; assay: ZR-75-1 human breast cancer xenograft; assay type: in vivo, Female homozygous HSD nu/nu athymic mice; conditions: 2.5 mg/Kg daily i.p., 42 days; E1 replacement
Method: A) ZR-75-1 human breast cancer: ZR-75-1 human breast cancer cells obtained from the American Tissue Culture Collection (Rockville, Md.) were cultured in phenol red-free RPMI 1640. […] Female homozygous HSD nu/nu athymic mice (50 days old) were obtained from Harlan Sprague Dawley Inc. (Indianapolis, Ind.). Five mice were housed per vinyl cage, which was equipped with air filter lids and kept in laminar air flow hoods under pathogen-limiting conditions. The photoperiod was composed of a period of 14 h of light and a period of 10 h of darkness. Cages, bedding, and food (Agway Pro-Lab R-M-H diet #4018) were autoclaved prior to use. […] Bilateral ovariectomy (OVX) was performed on all animals one week prior to cell inoculation, under 2.5% isoflurane anesthesia mixed with oxygen. Simultaneously, an oestrogen (E2) implant was inserted subcutaneously to stimulate […] tumor growth and appearance. E2 implants were prepared in 1-cm long silastic tubing (inside diameter, 0.062 inch; outside diameter, 0.095 inch) containing 0.5 cm of estradiol/cholesterol diluted at a ratio of 1:10 (w:w). […] Statistical significance of treatment effect was assessed by repeated measures ANOVA after applying a power transformation to equalize residual variances and linearize the tumor growth curves.

[3] = test system: Human umbilical vein endothelial cells (HUVECs); conditions: read-out: approximate IC50, endothelial cell proliferation; 96 hours in culture
Method: Each experiment was performed in triplicate. The culture medium was changed daily.

[4] = test system: Th1 and Th2 cytokine genes in spleen; assay: Cytokine gene expression in spleen (multi-probe RNase protection assay); assay type: in vivo, BALB/c mice; conditions: naive mice; up to 24 hr; in comparison to PBS
From the text: FIG. 8: In vivo bpV(phen)-induced cytokine gene expression in spleen of BALB/c mice. Expression of Th1 (IFN-(, IL-2, IL-12) and Th2 (IL-4 and IL-10) cytokines were monitored in spleen of BALB/c mice in response to bpv(phen) over a 24-hr period. Expression of cytokine genes has been monitored using a multi-probe RNase protection assay as described in more detail below. Results obtained are representative of 3 experiments performed independently.

[5] = test system: Leishmania major; assay: Leishmania vaccination trial (adjuvant); design: species or system BALB/c mice; conditions: in vivo, Leishmania infection
Method: FIG. 10: Use of bpV(phen) as an adjuvant in Leishmania vaccination trial. BALB/c mice were inoculated with soluble Leishmania major antigen (SLA; 100 μg) with or without daily injection of bpV(phen) ([…]) for 5 days. Two weeks later animals received a second set of treatment as above. Control animals received either PBS or bpV(phen) alone without any SLA. At 4 weeks post-vaccination, animals were challenged with 5 million Leishmania major stationary phase promastigotes injected in the right hind footpad. Progression of infection was followed by measuring footpad thickness with a caliper on a weekly basis. Differences measured for reduced footpad thickness were significant (p<0.01, Student's t test, n=5-10 animals per group) over their respective controls.
In the past, use of total and soluble Leishmania antigen (SLA) for vaccination has been reported and permitted some levels of protection against infectious challenges (85). Using a murine model, we have tested whether bpV(phen)-modulated cytokine and chemokine generation (as reported above) in combination with SLA administration could lead to protection against Leishmania infection. Mice have received PBS and bpv(phen) as controls, and SLA (100 μg) with or without daily bpV(phen) injection (500 nM, 5 days). All injections were done intra-peritoneally. […]

## O.O.O.OO.OO.[K+].[OH-].[V].c1cnc2c(c1)ccc1cccnc12 [bpV(phen), potassium bisperoxo(1,10-phenanthroline)oxovanadate]
[1]; 1 μM, compared to control
  cell migration from aortic rings: impaired
[1]; 3.5 μM
  cell migration from aortic rings: strong inhibition
[2]
  tumor size: do not resulted in increase of tumor size
[3]
  IC50: ~2000 nM
[4]
  cytokine gene expression in spleen (IL-12, IL-10, IL-2 and IFN): significantly up-regulated
[5]
  protection against infectious challenge (adjuvant potential): complete protection
